Common to all, as to details: FGFR binding data
The target in one experiment is T1, FGFR1 (Homo sapiens, UniProt P11362).
T1 construct: made in house; host or cells: E. coli derived from BL21, infected with T7 phage
The experiment is described as follows: Kinase binding assay (kinase-tagged T7 phage, affinity beads, qPCR readout), FGFR1. How it is done: (§1) Kinase-tagged T7 phage strains were prepared in an E. coli host derived from the BL21 strain. E. coli were grown to log-phase and infected with T7 phage and incubated with shaking at 32° C. until lysis. The lysates were centrifuged and filtered to remove cell debris. Streptavidin-coated magnetic beads were treated with biotinylated small molecule ligands for 30 minutes at room temperature to generate affinity resins for kinase assays. The liganded beads were blocked with excess biotin and washed with blocking buffer SeaBlock (Pierce), 1% BSA, 0.05% Tween 20, 1 mM DTT to remove unbound ligand and to reduce non-specific binding. Binding reactions were assembled by combining kinases, liganded affinity beads, and test compounds in 1× binding buffer (20% SeaBlock, 0.17×PBS, 0.05% Tween 20, 6 mM DTT).
(§2) Test compounds were prepared as 111× stocks in 100% DMSO. Kds were determined using an 11-point 3-fold compound dilution series with three DMSO control points. All compounds for Kd measurements are distributed by acoustic transfer (non-contact dispensing) in 100% DMSO. The compounds were then diluted directly into the assays such that the final concentration of DMSO was 0.9%. All reactions performed in polypropylene 384-well plate. Each was a final volume of 0.02 ml. The assay plates were incubated at room temperature with shaking for 1 hour and the affinity beads were washed with wash buffer (1×PBS, 0.05% Tween 20). The beads were then re-suspended in elution buffer (1×PBS, 0.05% Tween 20, 0.5 μM non-biotinylated affinity ligand) and incubated at room temperature with shaking for 30 minutes. The kinase concentration in the eluates was measured by qPCR.
(§3) Binding constants were calculated with a standard dose-response curve using the Hill equation: […]
(§4) The Hill Slope was set to −1. Curves were fitted using a non-linear least square fit with the Levenberg-Marquardt algorithm.

The target of a further experiment is T2, FGFR2 (Homo sapiens, UniProt P21802).
T2 construct: made in house; host or cells: E. coli derived from BL21, infected with T7 phage
Put plainly: Kinase binding assay (kinase-tagged T7 phage, affinity beads, qPCR readout), FGFR2. How it is done:
as §1, §2, §3, §4

Another experiment has as its target T3, FGFR3 (V555M) (Homo sapiens, UniProt P22607, V555M).
T3 construct: made in house; host or cells: E. coli derived from BL21, infected with T7 phage
The experiment is described as follows: Kinase binding assay (kinase-tagged T7 phage, affinity beads, qPCR readout), FGFR3 (V555M). How it is done:
as §1, §2, §3, §4

The target in another experiment is T4, FGFR3 (Homo sapiens, UniProt P22607).
T4 construct: made in house; host or cells: E. coli derived from BL21, infected with T7 phage
The experiment is described as follows: Kinase binding assay (kinase-tagged T7 phage, affinity beads, qPCR readout), FGFR3. How it is done:
as §1, §2, §3, §4

T1 sequence (P11362 22-822): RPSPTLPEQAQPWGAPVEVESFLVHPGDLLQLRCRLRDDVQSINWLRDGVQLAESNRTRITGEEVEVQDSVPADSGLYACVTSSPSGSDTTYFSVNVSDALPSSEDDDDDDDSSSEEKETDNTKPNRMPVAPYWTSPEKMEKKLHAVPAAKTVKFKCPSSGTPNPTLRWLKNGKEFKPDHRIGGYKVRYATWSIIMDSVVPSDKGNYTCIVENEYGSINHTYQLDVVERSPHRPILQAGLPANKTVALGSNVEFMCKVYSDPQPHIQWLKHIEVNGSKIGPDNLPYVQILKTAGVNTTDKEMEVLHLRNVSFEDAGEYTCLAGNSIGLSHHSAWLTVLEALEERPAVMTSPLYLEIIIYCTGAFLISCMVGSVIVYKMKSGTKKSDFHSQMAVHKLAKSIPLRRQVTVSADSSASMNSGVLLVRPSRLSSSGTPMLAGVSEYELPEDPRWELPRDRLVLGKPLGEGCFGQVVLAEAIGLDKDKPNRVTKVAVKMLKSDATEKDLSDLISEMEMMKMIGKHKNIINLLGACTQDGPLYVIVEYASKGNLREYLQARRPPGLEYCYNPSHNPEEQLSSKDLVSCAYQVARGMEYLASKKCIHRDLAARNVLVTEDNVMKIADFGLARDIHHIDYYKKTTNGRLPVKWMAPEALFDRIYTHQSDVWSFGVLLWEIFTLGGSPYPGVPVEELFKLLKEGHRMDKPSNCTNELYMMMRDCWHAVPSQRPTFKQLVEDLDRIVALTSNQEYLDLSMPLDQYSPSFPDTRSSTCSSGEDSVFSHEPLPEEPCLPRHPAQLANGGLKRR
T4 sequence (P22607 23-806): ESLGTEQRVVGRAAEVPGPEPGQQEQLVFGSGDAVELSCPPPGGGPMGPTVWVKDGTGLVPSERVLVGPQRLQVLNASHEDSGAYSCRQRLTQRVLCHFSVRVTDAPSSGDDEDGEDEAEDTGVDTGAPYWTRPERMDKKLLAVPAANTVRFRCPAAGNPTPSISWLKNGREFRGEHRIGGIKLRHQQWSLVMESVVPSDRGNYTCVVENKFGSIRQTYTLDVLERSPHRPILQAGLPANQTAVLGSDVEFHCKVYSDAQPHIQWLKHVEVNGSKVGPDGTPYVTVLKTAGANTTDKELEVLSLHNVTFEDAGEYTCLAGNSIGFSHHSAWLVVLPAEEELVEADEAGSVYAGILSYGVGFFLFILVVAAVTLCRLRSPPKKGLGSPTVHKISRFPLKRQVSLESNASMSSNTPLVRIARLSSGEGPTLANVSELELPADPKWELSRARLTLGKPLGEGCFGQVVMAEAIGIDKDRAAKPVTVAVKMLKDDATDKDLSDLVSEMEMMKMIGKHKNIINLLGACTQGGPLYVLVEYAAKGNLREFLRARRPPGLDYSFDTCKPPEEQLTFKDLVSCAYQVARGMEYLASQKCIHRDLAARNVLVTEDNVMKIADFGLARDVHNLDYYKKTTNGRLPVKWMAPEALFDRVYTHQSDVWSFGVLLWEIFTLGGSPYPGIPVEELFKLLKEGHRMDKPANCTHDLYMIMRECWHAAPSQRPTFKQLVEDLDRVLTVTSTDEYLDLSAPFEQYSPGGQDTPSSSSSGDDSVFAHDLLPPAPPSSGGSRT
T3 sequence (P22607 23-806 V555M): as the sequence (P22607 23-806) above, with V533M counted along it
T2 sequence (P21802 22-821): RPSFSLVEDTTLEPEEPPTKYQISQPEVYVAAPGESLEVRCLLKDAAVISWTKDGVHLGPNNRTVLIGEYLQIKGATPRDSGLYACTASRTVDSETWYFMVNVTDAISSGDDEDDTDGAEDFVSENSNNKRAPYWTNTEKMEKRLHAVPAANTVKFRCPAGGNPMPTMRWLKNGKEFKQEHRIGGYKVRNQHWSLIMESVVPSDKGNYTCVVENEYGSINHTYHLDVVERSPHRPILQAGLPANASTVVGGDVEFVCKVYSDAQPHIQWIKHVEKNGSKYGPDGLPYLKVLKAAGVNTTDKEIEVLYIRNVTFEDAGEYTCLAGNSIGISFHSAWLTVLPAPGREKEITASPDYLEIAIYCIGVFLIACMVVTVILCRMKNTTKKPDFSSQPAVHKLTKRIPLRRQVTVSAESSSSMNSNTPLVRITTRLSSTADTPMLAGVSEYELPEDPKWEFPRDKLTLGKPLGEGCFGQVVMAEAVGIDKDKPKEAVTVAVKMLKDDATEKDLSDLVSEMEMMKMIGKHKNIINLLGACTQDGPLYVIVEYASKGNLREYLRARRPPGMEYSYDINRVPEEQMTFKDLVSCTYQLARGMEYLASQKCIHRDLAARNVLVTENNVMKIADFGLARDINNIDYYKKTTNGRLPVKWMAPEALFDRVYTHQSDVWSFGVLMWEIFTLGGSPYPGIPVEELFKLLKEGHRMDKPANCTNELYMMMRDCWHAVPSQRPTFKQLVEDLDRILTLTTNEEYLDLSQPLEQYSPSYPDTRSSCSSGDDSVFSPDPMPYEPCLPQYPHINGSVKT

For the compound `C=CC(=O)Nc1ccc2c(c1)c(C)cn2-c1nc(Nc2cccc(N3CCN(C)CC3)c2)ncc1Cl` [Example 73, N-[1-[5-chloro-2-[3-(4-methylpiperazin-1-yl)anilino]-pyrimidin-4-yl]-3-methyl-indol-5-yl]prop-2-enamide], the Kd on FGFR1, at FGFR2, on FGFR3 (V555M) and at FGFR3 was 0.1 to 100 nM throughout.

As to `C=CC(=O)Nc1ccc2c(-c3ccnc(Nc4cc(C)[nH]n4)n3)cn(C)c2c1` [Example 111, N-[1-methyl-3-[2-[(5-methyl-1H-pyrazol-3-yl)amino]pyrimidin-4-yl]indol-6-yl]prop-2-enamide], the Kd on FGFR1, on FGFR2, on FGFR3 (V555M) and at FGFR3 was more than 1000 nM throughout.

For the compound `C=CC(=O)Nc1cnc2c(c1)c(C)cn2-c1nc(Nc2ccn(CCO)n2)ncc1C` [Example 119, N-[1-[2-[[1-(2-hydroxyethyl)pyrazol-3-yl]amino]-5-methyl-pyrimidin-4-yl]-3-methyl-pyrrolo[2,3-b]pyridin-5-yl]prop-2-enamide], the Kd at FGFR1, at FGFR2, at FGFR3 (V555M) and on FGFR3 was 0.1 to 100 nM each time.

In the case of `C=CC(=O)Nc1cc(C)c2c(c1)c(C)cn2-c1nc(Nc2ccc(N3CCOCC3)cc2)ncc1Cl` [Example 74, N-[1-[5-chloro-2-(4-morpholinoanilino)pyrimidin-4-yl]-3,7-dimethyl-indol-5-yl]prop-2-enamide], the Kd at FGFR1, on FGFR2, at FGFR3 (V555M) and on FGFR3 was 0.1 to 100 nM throughout.

For the compound `C=CC(=O)Nc1ccc2c(-c3ccnc(Nc4ccn(CC)n4)n3)cn(C)c2c1` [Example 94, N-[3-[2-[(1-ethylpyrazol-3-yl)amino]pyrimidin-4-yl]-1-methyl-indol-6-yl]prop-2-enamide], the Kd at FGFR1 was 100 to 250 nM; on FGFR2, 250 to 1000 nM; on FGFR3 (V555M), 100 to 250 nM; at FGFR3, 0.1 to 100 nM.

As for `C=CC(=O)Nc1ccc2c(c1)c(C)cn2-c1ccnc(Nc2cnn(CCO)c2)n1` [Example 137, N-[1-[2-[[1-(2-hydroxyethyl)pyrazol-4-yl]amino]pyrimidin-4-yl]-3-methyl-indol-5-yl]prop-2-enamide], the Kd on FGFR1, at FGFR2, at FGFR3 (V555M) and at FGFR3 was 0.1 to 100 nM in each case.

With `CC#CC(=O)Nc1ccc2c(-c3ccnc(Nc4cnn(CCO)c4)n3)cn(C)c2c1` [Example 145, N-[3-[2-[[1-(2-hydroxyethyl)pyrazol-4-yl]amino]pyrimidin-4-yl]-1-methyl-indol-6-yl]but-2-ynamide], the Kd on FGFR1 is more than 1000 nM; at FGFR2, 250 to 1000 nM; on FGFR3 (V555M), 250 to 1000 nM; on FGFR3 it was 250 to 1000 nM.

For `C=CC(=O)Nc1ccc2c(ccn2-c2nc(Nc3ccc(N4CCOCC4)cc3)ncc2Cl)c1` [Example 15, N-[1-[5-chloro-2-(4-morpholinoanilino)pyrimidin-4-yl]indol-5-yl]prop-2-enamide], the Kd at FGFR1 is 100 to 250 nM; on FGFR2, 0.1 to 100 nM; at FGFR3 (V555M), 0.1 to 100 nM; on FGFR3 it was 0.1 to 100 nM.

`C=CC(=O)Nc1ccc2c(c1)c(C)cn2-c1nc(Nc2cn(C)nc2OC)ncc1C#N` [Example 37, N-[1-[5-cyano-2-[(3-methoxy-1-methyl-pyrazol-4-yl)amino]pyrimidin-4-yl]-3-methyl-indol-5-yl]prop-2-enamide]: the Kd on FGFR1 lay within 100 to 250 nM; at FGFR2 it was 0.1 to 100 nM; on FGFR3 (V555M) it was 0.1 to 100 nM; at FGFR3, 100 to 250 nM.

In the case of `C=CC(=O)Nc1ccc2c(ccn2-c2nc(Nc3cccc(OCCN4CCOCC4)c3)ncc2Cl)c1` [Example 6, N-[1-[5-chloro-2-[3-(2-morpholinoethoxy)anilino]pyrimidin-4-yl]indol-5-yl]prop-2-enamide], the Kd at FGFR1 was in the range of 250 to 1000 nM; on FGFR2, 250 to 1000 nM; on FGFR3 (V555M), 0.1 to 100 nM; on FGFR3, 250 to 1000 nM.

Turning to `C=CC(=O)Nc1ccc2c(-c3ccnc(Nc4cnn(CC)c4)n3)cn(C)c2c1` [Example 95, N-[3-[2-[(1-ethylpyrazol-4-yl)amino]pyrimidin-4-yl]-1-methyl-indol-6-yl]prop-2-enamide], the Kd at FGFR1, at FGFR2, on FGFR3 (V555M) and at FGFR3 was 0.1 to 100 nM in each case.

Regarding `Cc1nn(C)cc1Nc1ncc(F)c(-n2cc(C)c3cc(NC(=O)/C=C/CN(C)C)cnc32)n1` [Example 179, (E)-4-(dimethylamino)-N-[1-[2-[(1,3-dimethylpyrazol-4-yl)amino]-5-fluoro-pyrimidin-4-yl]-3-methyl-pyrrolo[2,3-b]pyridin-5-yl]but-2-enamide], the Kd on FGFR1 lay in the range of 250 to 1000 nM; at FGFR2, 100 to 250 nM; at FGFR3 (V555M), 100 to 250 nM; on FGFR3, 100 to 250 nM.

`C=CC(=O)Nc1cnc2c(c1)c(C)cn2-c1ccnc(Nc2ccnn2C)n1` [Example 83, N-[3-methyl-1-[2-[(2-methylpyrazol-3-yl)amino]pyrimidin-4-yl]pyrrolo[2,3-b]pyridin-5-yl]prop-2-enamide]: the Kd on FGFR1, on FGFR2, at FGFR3 (V555M) and at FGFR3 was 0.1 to 100 nM throughout.

Consider `C=CC(=O)Nc1ccc2c(c1)c(C)cn2-c1cc(Nc2cnn(C)c2)ncn1` [Example 219, N-[3-methyl-1-[6-[(1-methylpyrazol-4-yl)amino]pyrimidin-4-yl]indol-5-yl]prop-2-enamide], for which the Kd is more than 1000 nM on FGFR1, 250 to 1000 nM on FGFR2, 250 to 1000 nM at FGFR3 (V555M) and 100 to 250 nM at FGFR3.

With `C=CC(=O)Nc1ccc2c(c1)c(C)cn2-c1nc(Nc2cnnn2C)ncc1Cl` [Example 72, N-[1-[5-chloro-2-[(3-methyltriazol-4-yl)amino]pyrimidin-4-yl]-3-methyl-indol-5-yl]prop-2-enamide], the dissociation constant Kd at FGFR1, at FGFR2, at FGFR3 (V555M) and at FGFR3 was 0.1 to 100 nM each time.

Turning to `C#CC(=O)Nc1ccc2c(c1)c(C)cn2-c1nc(Nc2cnn(CCO)c2)ncc1F` [Example 129, N-[1-[5-fluoro-2-[[1-(2-hydroxyethyl)pyrazol-4-yl]amino]pyrimidin-4-yl]-3-methyl-indol-5-yl]prop-2-ynamide], the Kd at FGFR1, on FGFR2, at FGFR3 (V555M) and on FGFR3 was 0.1 to 100 nM throughout.

Turning to `C=CC(=O)Nc1ccc2c(ccn2-c2nc(Nc3ccc(N(C)CCN(C)C)cc3)ncc2Cl)c1` [Example 3, N-[1-[5-chloro-2-[4-[2-(dimethylamino)ethyl-methyl-amino]anilino]pyrimidin-4-yl]indol-5-yl]prop-2-enamide], the Kd on FGFR1, at FGFR2, at FGFR3 (V555M) and at FGFR3 was 0.1 to 100 nM throughout.

On to `CC#CC(=O)Nc1ccc2c(-c3nc(Nc4cnn(CCO)c4)ncc3Cl)cn(C)c2c1` [Example 135, N-[3-[5-chloro-2-[[1-(2-hydroxyethyl)pyrazol-4-yl]amino]pyrimidin-4-yl]-1-methyl-indol-6-yl]but-2-ynamide], for which the Kd at FGFR1 is 250 to 1000 nM; at FGFR2, 0.1 to 100 nM; on FGFR3 (V555M) it was 0.1 to 100 nM; on FGFR3 it was 100 to 250 nM.

`C=CC(=O)Nc1ccc2c(c1)c(C)cn2-c1nc(Nc2cnn(CCO)c2C)ncc1F` [Example 192, N-[1-[5-fluoro-2-[[1-(2-hydroxyethyl)-5-methyl-pyrazol-4-yl]amino]pyrimidin-4-yl]-3-methyl-indol-5-yl]prop-2-enamide]: the Kd at FGFR1, at FGFR2, at FGFR3 (V555M) and at FGFR3 was 0.1 to 100 nM in each case.

For the compound `C=CC(=O)Nc1ccc2c(c1)c(C)cn2-c1nc(Nc2cnn(C[C@H](C)OC)c2)ncc1F` [Example 205], the Kd at FGFR1, on FGFR2, on FGFR3 (V555M) and at FGFR3 was 0.1 to 100 nM each time.

For the compound `C=CC(=O)Nc1ccc2c(ccn2-c2nc(Nc3ccccc3OCCN3CCOCC3)ncc2Cl)c1` [Example 13, N-[1-[5-chloro-2-[2-(2-morpholinoethoxy)anilino]pyrimidin-4-yl]indol-5-yl]prop-2-enamide], the Kd at FGFR1, at FGFR2, on FGFR3 (V555M) and on FGFR3 was more than 1000 nM each time.

Regarding `C=CC(=O)Nc1ccc2c(-c3nc(Nc4cn(CC(F)F)nc4C)ncc3F)cn(C)c2c1` [Example 169, N-[3-[2-[[1-(2,2-difluoroethyl)-3-methyl-pyrazol-4-yl]amino]-5-fluoro-pyrimidin-4-yl]-1-methyl-indol-6-yl]prop-2-enamide], the Kd at FGFR1 was in the range of 250 to 1000 nM; at FGFR2, 0.1 to 100 nM; at FGFR3 (V555M), 0.1 to 100 nM; at FGFR3, 0.1 to 100 nM.

For the origin of these results see US20240190849A1, “AMINOPYRIMIDINE COMPOUNDS AND METHODS OF THEIR USE” (TYRA BIOSCIENCES, INC., priority 2021, published 2024).
